Experimental findings from ChEMBL document CHEMBL1255306, “Potential basis for amphotericin B resistance in Aspergillus terreus” (2008) are described below.

For assay [1], the system named is Aspergillus fumigatus. Kind of assay: Antimicrobial activity against […] Aspergillus fumigatus assessed as high malonaldehyde activity at 10 ug/ml after 8 hrs by thiobarbituric acid test. Type of assay: functional, organism-based.
Assay [2] has as its system Aspergillus terreus. Nature of the assay: Antimicrobial activity against AMB-resistant Aspergillus terreus assessed as catalase activity after 24 to 48 hrs. It counts as functional, organism-based.
For assay [3], the system named is Aspergillus terreus. Kind of assay: Antimicrobial activity against AMB-resistant Aspergillus terreus assessed as high malonaldehyde activity at 10 ug/ml after 8 hrs by thiobarbituric acid test. Type of assay: functional, organism-based.
For assay [4], the system named is Aspergillus terreus. Kind of assay: Antimicrobial activity against AMB-resistant Aspergillus terreus assessed as high malonaldehyde activity at 5 ug/ml after 8 hrs by thiobarbituric acid test. It counts as functional, organism-based.
The test system of assay [5] is Aspergillus terreus. Nature of the assay: Antimicrobial activity against Aspergillus terreus protoplast by CLSI M38-A broth microdilution method. Type of assay: functional. For orientation: In broth dilution the organism is exposed to a series of concentrations in liquid medium.
Assay [6] relates to Aspergillus fumigatus. Nature of the assay: Antimicrobial activity against […] Aspergillus fumigatus assessed as high malonaldehyde activity at 5 ug/ml after 8 hrs by thiobarbituric acid test. It counts as functional, organism-based.
Assay [7] has as its system Aspergillus terreus. Nature of the assay: Antimicrobial activity against Aspergillus terreus conidia by CLSI M38-A broth microdilution method. Type of assay: functional.
The test system of assay [8] is Aspergillus fumigatus. Kind of assay: Antimicrobial activity against […] Aspergillus fumigatus assessed as catalase activity after 24 to 48 hrs. Type of assay: functional, organism-based.

The structures appear in SMILES notation. ≈ marks a conversion by molar mass, not a printed value. Calls of active or inactive are those of the source. The rule behind the calls is not given here.

For the molecule `C[C@@H]1[C@H](O)[C@@H](C)/C=C/C=C/C=C/C=C/C=C/C=C/C=C/[C@H](O[C@@H]2O[C@H](C)[C@@H](O)[C@H](N)[C@@H]2O)C[C@@H]2O[C@](O)(C[C@@H](O)C[C@@H](O)[C@H](O)CC[C@@H](O)C[C@@H](O)CC(=O)O[C@H]1C)C[C@H](O)[C@H]2C(=O)O` [AMPHOTERICIN B], the result in the assay with Aspergillus fumigatus [1], with Aspergillus terreus [2], in the assay with Aspergillus terreus [3], in the assay with Aspergillus terreus [4] and with Aspergillus fumigatus [6] was Active. The values for the minimal inhibitory concentration (MIC) in the assay on Aspergillus terreus [5] and in the assay on Aspergillus terreus [7] were 1.41 µg/mL (≈ 1.53 µM) and 1.7 µg/mL (≈ 1.84 µM), respectively. In addition, the result in the assay with Aspergillus fumigatus [8] was inactive.
